Measurements as given in patent publication US11479770B2, “Use of p38 inhibitors to reduce expression of DUX4” (Fulcrum Therapeutics, Inc., priority 2017, dated 2022).

What was measured:
[1] = tested on: MBD3L2 mRNA (DUX4 downstream gene); assay: MBD3L2 mRNA expression (qPCR) in FSHD myotubes; assay type: cell-based, human; settings: 1 μM
Method: On day 0, the media was changed to differentiation media. Plates were removed from the incubator and the growth medium was aspirated, plates were washed once with PBS, 100 μL, for 96-wells and 1 mL for a 6-well plate, 100 μL, or 2 mL of differentiation medium was added per well, 96- or 6-well respectively. Antisense oligonucleotides or drug were added at the desired concentration, and the plates were put back in the incubator and incubated for 3-4 days.
Cells were removed from the incubator and media aspirated. Cells were quickly lysed following one of the following protocols: for lysis in 96-well plates, direct lysis and one-step RT-Preamp qPCR was performed according to the protocol described below. For each 96-well, a mix containing: 19.5 μL Roche Realtime Ready lysis buffer, 0.25 μL RNAse inhibitor, 0.25 μL DNAseI (from Thermo not the included one in the kit) was prepared. 20 μL of the mix was added to each well, mixed 5 times, and incubated 5 minutes at RT or alternatively shaken vigorously for 15 minutes. Lysis was observed under the microscope. Samples were frozen −80° C. at least for 15 minutes.
1-step RT-Preamplification was used for detection of DUX4 downstream genes, i.e., MBD3L2, ZSCAN4, LEUTX, TRIM43, KHDC1L, and POL2RA-VIC was used as endogenous control. Per 10 μL reaction, the reaction mix included: 2.25 μL of RNA (1:10 dilution lysate), 5 μL of Taqman Pre-Amp Master Mix (2×), 0.25 μL of RT enzyme mix (40×), 2.5 μL of Taqman probe set (0.2×)*. * For pooling the TaqMan Assays, equal volumes of each 20× TaqMan® Gene Expression Assay were used, and up to 100 assays were combined. For example, to pool 50 TaqMan assays, 10 μL of each assay were combined in a microcentrifuge tube. The pooled TaqMan assays were diluted using 1× TE buffer so that each assay was at a final concentration of 0.2×. For the above example, 500 μL of 1× TE buffer was added to the pooled TaqMan assays for a total final volume of 1 mL. The QuantStudio7 protocol was used at 48° C. 15 min, 95° C. 10 min, 10 cycles: 95° C. 15 sec, 60° C. 4 min, and 4° C. infinite Samples were then diluted to 50 μL and continued with the qPCR step. Per 10 μL reaction, the reaction mix included: 2 μL of Preamp dilution, 5 μL of Fast Advanced Taqman Master Mix (2×), 0.5 μL of Taqman probe set (20×), and 2.5 μL of H2O. When multiplexing, the volume was adjusted to 10 μL total. The following program was run on the QuantStudio7: 50° C. for 2 min, 95° C. for 30 sec, 40×, 95° C. for 5 sec, 60° C. for 30 sec, and plates were read as per the manufacturers specifications (Thermo).
Wild type myotubes and mature patient-derived FSHD myotubes that express DUX4 protein were treated with DMSO vehicle control or multiple concentrations of various p38α/β inhibitors with different ranges of isoform and kinome selectivity, including SB239063 (FIG. 4A), VX-702 (FIG. 4B), Pamapimod (FIG. 4C), and TAK-715 (FIG. 4D). After treatment, the control and treated cells were processed for realtime PCR quantification of MBD3L2 mRNA (DUX4 downstream gene) and myogenin (MYOG) mRNA (control) expression.

DUX4 target genes = assay: RNA-seq profiling of FSHD myotubes; assay type: cell-based, human; settings: 1 μM
Source text: The 40 bp single-end reads from Illumina had good quality by checking with FastQC (http://www.bioinformatics.babraham.ac.uk/projects/fastqc/). Reads were mapped to hg19 using TopHat v2.1.1 (Kim et al., 2013) with options as “solexa1.3-quals” mode and “no-novel-juncs.” The gene model for TopHat was created by merging known gene in gtf format with kgXref table. Both known gene and kgXref were downloaded from UCSC table browser in hg19 assembly. The read counts were obtained using featureCounts function from Subread package with strandness option as −r 2. Reads were normalized with DESeq2 (Love et al., 2014).
The 40 bp single-end reads from Illumina had good quality by checking with FastQC (http://www.bioinformatics.babraham.ac.uk/projects/fastqc/). Reads were mapped to hg19 using TopHat v2.1.1. The gene model for TopHat was created by merging knownGene in gtf format with kgXref table. Both known gene and kgXref were downloaded from UCSC table browser in hg19 assembly. The read counts were obtained using feature Counts function from Subread package with strandness option as -r 2. Reads were normalized with DESeq2. […] Calculated standard RPKM expression values. […]
In addition, gene expression was also determined in wild type myotubes treated with DMSO. Three replicates for each condition were analyzed by RNA-seq and genes were clustered by the direction and intensity of change.

[2] = tested on: p38 system (phospho MK2 to total MK2 ratio); assay: Rat PD: phospho MK2 to total MK2 ratio in trapezius muscle; assay type: in vivo
Method: Approximately 50 mg of muscle tissue was placed on dry ice. Muscle samples were cut, as needed to obtain the 50 mg weight using a clean razor blade per specimen. 50 mg of muscle tissue was placed into a pre-labeled TT1 Covaris bag (Covaris, MA, USA) and kept on dry ice. The TT1 Covaris bag was submerged in liquid nitrogen and the sample was cryofractured in the Covaris cryoPREP (Covaris, MA, USA) on setting “5”. The TT1 bag was rotated 180° and steps 2-a were repeated. The sample was transferred into a pre-weighed/labeled tube and maintained on dry ice until all samples were prepared. Sample weights were recorded. RIPA lysis buffer was prepared (R0278-500ML, Sigma, MO, USA). For 10 ml, two Roche PhosSTOP phosphatase inhibitor tablets and one Roche EDTA-free protease inhibitor tablet were added. To the cryofractured material, 8 μl per mg of RIPA buffer were added to each tube and each tube was vortexed until the lysate was homogeneous. Lysates were maintained on ice until all samples were processed. The lysate was cleared by centrifugation at 13,000 g for 5 minutes at 4° C. The supernatant was transferred to a new tube and snap frozen in liquid nitrogen (setting aside […] for protein assay). To measure the protein content of each sample, a Bradford DC protein assay (5000112, Bio-Rad, CA, USA) was conducted. Samples were diluted 1:20 in PBS for protein assessment.
The homogenized trapezius muscle lysate was assessed using an internally developed Meso Scale Discovery (MSD) multiplexed phospho MK2/total MK2 immunoassay (Meso Scale Diagnostics, MD, USA). For each sample, 50 μL of muscle lysate, equal to 50 μg of protein, was loaded onto the MSD assay. Protein concentrations in muscle lysates were determined by a Bradford DC protein assay as described above. Samples were assessed in duplicate. Muscle samples were incubated on a pre-coated MSD plate overnight at 4° C. while on an orbital shaker (300 rpm) and assessed the following morning.

[3] = tested on: DUX4 dependent target genes; assay: Predicted reduction of DUX4 dependent target genes in FSHD patient muscle; parameters: species or system human; settings: from rat muscle concentrations and in vitro FSHD myotube data
Method: P38 system target engagement persisted for at least 12 hours following the single dose of FTX-1821 (FIG. 15). P38 system target engagement in trapezius muscle was maximal when plasma and muscle concentrations of FTX-1821 were greater than 20 ng.mL or ng.g and declined at timepoints when exposures decreased. The muscle concentrations of FTX-1821 achieved in the rat study are predicted to result in >70% reduction at Cmax in DUX4 dependent target genes in FSHD patient muscle biopsies based upon in vitro data in FSHD myotubes (above).

[4] = rat; oral; clinically relevant plasma exposures
Method: Male Sprague Dawley rats (6-8 weeks of age) were supplied by Hilltop Lab Animals, Inc. (USA). Following arrival at Wuxi AppTec, animals were assessed for their general health by a member of veterinary staff or other designated personnel. Animals were acclimated for at least 2 days (upon arrival at WuXi AppTec) before commencement of the study. Animals were individually housed during acclimation and throughout the study. The animal room environment was controlled according to facility operation (target conditions: temperature 20 to 26° C., relative humidity 30 to 70%, 12-hour cycle of lights on and off). Lights, temperature and relative humidity are constantly monitored by AmegaView Environmental Monitoring System. […] Water (reverse osmosis) was provided to the animals ad libitum. […] In study #FULTH-20171120 rats were fasted overnight prior to drug administration: rats were allowed free access to water at all times and were fed 4 hours post dosing. For study #FULTH-20171228 rats were allowed ad-libitum access to food and water throughout the study.
Dose volume was determined by measured body weight prior to dosing. […] Feeding condition: overnight fast, food return 4 hours after dosing.
Blood samples for PK: Approximately 100 μl of blood sample was obtained via jugular vein or tail vein at each pre-defined time point. […]

[5] = rat, single oral dose 0.3 mg/kg

Cc1c(F)cc(C(=O)NC2CC2)cc1-c1ccc(C(=O)NCC(C)(C)C)cn1 [FTX-1821]
MBD3L2 mRNA in FSHD1 and FSHD2 primary patient myoblast lines ([1]; to levels similar to healthy control lines): reduction
MBD3L2 expression levels in four FSHD patient lines ([1]; FTCE-016, -020, -197, -196 myotubes, to levels similar to healthy controls): reduced
non-DUX4-regulated genes in total signature (DUX4 target genes; moderate fold changes): 9/86
expression of differentially expressed (DUX4 pathway) genes by RNA-seq (DUX4 target genes; vs DMSO and wild type): normalized
plasma concentration at maximal inhibition of the p38 system in muscle ([2]; rat): greater than 20 ng/mL
plasma and muscle concentrations at maximal p38 system target engagement ([2]; rat trapezius muscle): greater than 20 ng.mL or ng.g
time to significant decrease of phospho MK2 to total MK2 ratio ([2]; rat trapezius, single oral dose 0.3 mg/kg): ≤ 1 h
persistence of p38 system target engagement [2, 5]: at least 12 hours
phospho MK2 to total MK2 ratio in trapezius muscle [2, 5]: significantly decreased
predicted reduction at Cmax in DUX4 dependent target genes in FSHD patient muscle biopsies [3]: > 70%
Muscle to plasma exposure ratios [4]: ≥ 1
